The target in this assay is T1, buffalo brain cystatin (BC).
T1 construct: gene CST3
Put plainly: intrinsic fluorescence quenching, log-log plot. The settings on record: 1 μM BC, 50 mM sodium phosphate pH 7.5, 298 K, 30 min incubation, excitation 280 nm; n = 0.79. Format: binding, Bubalus bubalis. From the text:
intrinsic fluorescence quenching, log-log plot on buffalo brain cystatin (BC)

The structures appear in SMILES notation.

As for `CNCCC(Oc1ccc(C(F)(F)F)cc1)c1ccccc1` (stereo not shown) [Fluoxetine], the “K (binding constant) mol^-1” value was 5.0317e+06 mol⁻¹.
